Data set [1] concerns human pancreatic cancer PANC1. Conditions: disc diffusion, 30-45 ug per disc, 7-10 days; result in words.
For data set [2] the following is noted: pharmacokinetic studies, clinical trials in patients; cited from earlier work.
For another data set, the system named is human brain U251N. Conditions: disc diffusion, 30-45 ug per disc, 7-10 days; result in words.
The test system of the next data set is human colon HCT116. Conditions: disc diffusion, 30-45 ug per disc, 7-10 days; result in words. A general note: Agar diffusion results depend on both activity and mobility in agar.

Data on one substance can be found in publication PMC4516563 (Biochimica et biophysica acta, 2015).

With Kahalalide F [KF], the “cytotoxicity based on the zone assay, PANC-1” value in data set [1] is reported as “minimal”. The half-life result in data set [2] is “approximately 30 min”. Also, the “cytotoxicity based on the zone assay, U251N” value in the data set with human brain U251N was “minimal”. Also, the “cytotoxicity based on the zone assay, HCT-116” value in the data set with human colon HCT116 was “minimal”.
